According to patent US5112992A, “Production of polycarboxylic acids with hafnium-activated cobalt catalyst” (Amoco Corporation, priority 1991, dated 1992):

Legend:
[1] = Metal remaining soluble in filtrate (pyromellitic acid) after durene oxidation
[2] = Solubility of hafnium and zirconium tetrabromides in acetic acid-water mixtures in presence of trimellitic acid
Method: Solubility of hafnium compounds, i.e., hafnium bromide, was determined in acetic acid-water mixtures in the presence of trimellitic acid and pyromellitic acid. Hafnium tetrabromide, 0.0012M, was heated in a 20% water-acetic acid solution to reflux. Trimellitic acid (0.71M) was added.

Compound: [Br][Hf]([Br])([Br])[Br] [Hafnium tetrabromide]
- metal remained soluble ([1]; Example V: durene oxidation reactor effluent cooled to room temperature and filtered): 36%
- % Soluble ([1]; Metal in filtrate after durene oxidation): 32%
- Appearance of solution after adding trimellitic acid ([2]; 0.0012M tetrabromide in 20% water-acetic acid at reflux, trimellitic acid 0.71M added): remained clear
- % Soluble ([2]; Metal + trimellitic acid in 20% H2O-HOAc at 25° C., solution cooled and solids filtered off, molar basis): 36%
- % Soluble ([2]; Metal + trimellitic acid in 20% H2O-HOAc at 100° C.): 100%
